Assay results published in PMC12446476 (Nature Communications, 2025).
Values after ≈ are worked out from the molar mass of the structure shown. Where two headings read alike, the source gives them in different places.

Test system: non-gonococcal Neisseria
Assay: MIC determination for non-gonococcal Neisseria, agar dilution
Type: cell-based, Neisseria species
Settings: read-out: Minimum inhibitory concentration
Excerpt: The 2024 WHO N. gonorrhoeae reference strains were used for quality control. Only whole MIC doubling dilutions are reported. Clinical breakpoints or the epidemiological cutoff (ECOFF, to indicate azithromycin resistance) from EUCAST (v14.0, https://www.eucast.org/clinical_breakpoints) were used to classify isolates as antimicrobial susceptible or resistant. […] Two times the standard inoculum defined by CLSI was used to establish consistent growth in untreated control samples for some strains. In vitro time-kill assays were performed according to CLSI guidelines[65] using Columbia Broth (BD Difco) supplemented with 1% IsoVitaleX Enrichment (BD). Viable bacterial counts were generated by plating 10-fold serially diluted samples on GC agar plates containing 1% IsoVitaleX Enrichment (BD).

Cc1c(CN(C)C(=O)/C=C/c2cnc3c(c2)N[C@H](C)[C@H](O)C(=O)N3)oc2ccccc12 [Debio 1453]
MIC (Neisseria mucosa 4, Replicate 1): 1 µg/mL (≈ 2.38 µM)
MIC (Neisseria mucosa 4, Replicate 2): 1 µg/mL (≈ 2.38 µM)
MIC (Neisseria mucosa 4, Replicate 3): 1 µg/mL (≈ 2.38 µM)
MIC (Neisseria mucosa 5, Consensus): 0.5 µg/mL (≈ 1.19 µM)
MIC (Neisseria mucosa 5, Replicate 1): 0.25 µg/mL (≈ 0.595 µM)
MIC (Neisseria mucosa 5, Replicate 2): 0.5 µg/mL (≈ 1.19 µM)
MIC (Neisseria mucosa 5, Replicate 3): 0.5 µg/mL (≈ 1.19 µM)
MIC (Neisseria mucosa 6, Consensus): 0.5 µg/mL (≈ 1.19 µM)
MIC (Neisseria mucosa 6, Replicate 1): 0.25 µg/mL (≈ 0.595 µM)
MIC (Neisseria mucosa 6, Replicate 2): 0.5 µg/mL (≈ 1.19 µM)
MIC (Neisseria mucosa 6, Replicate 3): 0.5 µg/mL (≈ 1.19 µM)
MIC (Neisseria mucosa 7, Consensus): 0.25 µg/mL (≈ 0.595 µM)
MIC (Neisseria mucosa 7, Replicate 1): 0.25 µg/mL (≈ 0.595 µM)
MIC (Neisseria mucosa 7, Replicate 2): 0.25 µg/mL (≈ 0.595 µM)
MIC (Neisseria mucosa 7, Replicate 3): 0.25 µg/mL (≈ 0.595 µM)
MIC (Neisseria mucosa 8, Consensus): 1 µg/mL (≈ 2.38 µM)
MIC (Neisseria mucosa 8, Replicate 1): 1 µg/mL (≈ 2.38 µM)
MIC (Neisseria mucosa 8, Replicate 2): 1 µg/mL (≈ 2.38 µM)
MIC (Neisseria mucosa 8, Replicate 3): 1 µg/mL (≈ 2.38 µM)
MIC (Neisseria mucosa 9, Consensus): 2 µg/mL (≈ 4.76 µM)
MIC (Neisseria mucosa 9, Replicate 1): 1 µg/mL (≈ 2.38 µM)
MIC (Neisseria mucosa 9, Replicate 2): 2 µg/mL (≈ 4.76 µM)
MIC (Neisseria mucosa 9, Replicate 3): 2 µg/mL (≈ 4.76 µM)
MIC (Neisseria perflava 1, Consensus): 0.25 µg/mL (≈ 0.595 µM)
MIC (Neisseria perflava 1, Replicate 1): 0.25 µg/mL (≈ 0.595 µM)
MIC (Neisseria perflava 1, Replicate 2): 0.25 µg/mL (≈ 0.595 µM)
MIC (Neisseria perflava 1, Replicate 3): 0.25 µg/mL (≈ 0.595 µM)
MIC (Neisseria perflava 2, Consensus): 0.032 µg/mL (≈ 0.0761 µM)
MIC (Neisseria perflava 2, Replicate 1): 0.032 µg/mL (≈ 0.0761 µM)
MIC (Neisseria perflava 2, Replicate 2): 0.032 µg/mL (≈ 0.0761 µM)
MIC (Neisseria perflava 2, Replicate 3): 0.032 µg/mL (≈ 0.0761 µM)
MIC (Neisseria perflava 3, Consensus): 0.032 µg/mL (≈ 0.0761 µM)
MIC (Neisseria perflava 3, Replicate 1): 0.032 µg/mL (≈ 0.0761 µM)
MIC (Neisseria perflava 3, Replicate 2): 0.032 µg/mL (≈ 0.0761 µM)
MIC (Neisseria perflava 3, Replicate 3): 0.032 µg/mL (≈ 0.0761 µM)
MIC (Neisseria perflava 4, Consensus): 0.25 µg/mL (≈ 0.595 µM)
MIC (Neisseria perflava 4, Replicate 1): 0.25 µg/mL (≈ 0.595 µM)
MIC (Neisseria perflava 4, Replicate 2): 0.25 µg/mL (≈ 0.595 µM)
MIC (Neisseria perflava 4, Replicate 3): 0.25 µg/mL (≈ 0.595 µM)
MIC (Neisseria perflava 6, Consensus): 0.25 µg/mL (≈ 0.595 µM)
MIC (Neisseria perflava 6, Replicate 1): 0.25 µg/mL (≈ 0.595 µM)
MIC (Neisseria perflava 6, Replicate 2): 0.5 µg/mL (≈ 1.19 µM)
MIC (Neisseria perflava 6, Replicate 3): 0.25 µg/mL (≈ 0.595 µM)
MIC (Neisseria perflava 7, Consensus): 0.5 µg/mL (≈ 1.19 µM)
MIC (Neisseria perflava 7, Replicate 1): 0.5 µg/mL (≈ 1.19 µM)
MIC (Neisseria perflava 7, Replicate 2): 0.5 µg/mL (≈ 1.19 µM)
MIC (Neisseria perflava 7, Replicate 3): 0.5 µg/mL (≈ 1.19 µM)
MIC (Neisseria perflava 8, Consensus): 0.25 µg/mL (≈ 0.595 µM)
MIC (Neisseria perflava 8, Replicate 1): 0.25 µg/mL (≈ 0.595 µM)
MIC (Neisseria perflava 8, Replicate 2): 0.5 µg/mL (≈ 1.19 µM)
MIC (Neisseria perflava 8, Replicate 3): 0.25 µg/mL (≈ 0.595 µM)
MIC (Neisseria perflava 9, Consensus): 0.5 µg/mL (≈ 1.19 µM)
MIC (Neisseria perflava 9, Replicate 1): 0.25 µg/mL (≈ 0.595 µM)
MIC (Neisseria perflava 9, Replicate 2): 0.5 µg/mL (≈ 1.19 µM)
MIC (Neisseria perflava 9, Replicate 3): 0.5 µg/mL (≈ 1.19 µM)
MIC (Neisseria perflava 10, Consensus): 0.5 µg/mL (≈ 1.19 µM)
MIC (Neisseria perflava 10, Replicate 1): 0.5 µg/mL (≈ 1.19 µM)
MIC (Neisseria perflava 10, Replicate 2): 0.5 µg/mL (≈ 1.19 µM)
MIC (Neisseria perflava 10, Replicate 3): 0.5 µg/mL (≈ 1.19 µM)
MIC (Neisseria perflava 11, Consensus): 1 µg/mL (≈ 2.38 µM)
MIC (Neisseria perflava 11, Replicate 1): 1 µg/mL (≈ 2.38 µM)
MIC (Neisseria perflava 11, Replicate 2): 1 µg/mL (≈ 2.38 µM)
MIC (Neisseria perflava 11, Replicate 3): 0.5 µg/mL (≈ 1.19 µM)
MIC (Neisseria perflava 12, Consensus): 0.5 µg/mL (≈ 1.19 µM)
MIC (Neisseria perflava 12, Replicate 1): 0.5 µg/mL (≈ 1.19 µM)
MIC (Neisseria perflava 12, Replicate 2): 0.5 µg/mL (≈ 1.19 µM)
MIC (Neisseria perflava 12, Replicate 3): 0.5 µg/mL (≈ 1.19 µM)
MIC (Neisseria perflava 13, Consensus): 0.25 µg/mL (≈ 0.595 µM)
MIC (Neisseria perflava 13, Replicate 1): 0.25 µg/mL (≈ 0.595 µM)
MIC (Neisseria perflava 13, Replicate 2): 0.25 µg/mL (≈ 0.595 µM)
MIC (Neisseria perflava 13, Replicate 3): 0.25 µg/mL (≈ 0.595 µM)
MIC (Neisseria perflava 14, Consensus): 0.5 µg/mL (≈ 1.19 µM)
MIC (Neisseria perflava 14, Replicate 1): 0.5 µg/mL (≈ 1.19 µM)
MIC (Neisseria perflava 14, Replicate 2): 0.5 µg/mL (≈ 1.19 µM)
MIC (Neisseria perflava 14, Replicate 3): 0.5 µg/mL (≈ 1.19 µM)
MIC (Neisseria perflava 15, Consensus): 0.5 µg/mL (≈ 1.19 µM)
MIC (Neisseria perflava 15, Replicate 1): 0.5 µg/mL (≈ 1.19 µM)
MIC (Neisseria perflava 15, Replicate 2): 0.5 µg/mL (≈ 1.19 µM)
MIC (Neisseria perflava 15, Replicate 3): 0.5 µg/mL (≈ 1.19 µM)
MIC (Neisseria perflava 16, Consensus): 0.5 µg/mL (≈ 1.19 µM)
MIC (Neisseria perflava 16, Replicate 1): 0.5 µg/mL (≈ 1.19 µM)
MIC (Neisseria perflava 16, Replicate 2): 0.5 µg/mL (≈ 1.19 µM)
MIC (Neisseria perflava 16, Replicate 3): 1 µg/mL (≈ 2.38 µM)
MIC (Neisseria perflava 17, Consensus): 0.5 µg/mL (≈ 1.19 µM)
MIC (Neisseria perflava 17, Replicate 1): 0.5 µg/mL (≈ 1.19 µM)
MIC (Neisseria perflava 17, Replicate 2): 0.5 µg/mL (≈ 1.19 µM)
MIC (Neisseria perflava 17, Replicate 3): 0.5 µg/mL (≈ 1.19 µM)
MIC (Neisseria perflava 18, Replicate 2): 0.25 µg/mL (≈ 0.595 µM)
MIC (Neisseria perflava 19, Consensus): 1 µg/mL (≈ 2.38 µM)
MIC (Neisseria perflava 19, Replicate 1): 1 µg/mL (≈ 2.38 µM)
MIC (Neisseria perflava 19, Replicate 2): 1 µg/mL (≈ 2.38 µM)
MIC (Neisseria perflava 19, Replicate 3): 1 µg/mL (≈ 2.38 µM)
MIC (Neisseria perflava 20, Consensus): 0.5 µg/mL (≈ 1.19 µM)
MIC (Neisseria perflava 20, Replicate 1): 0.5 µg/mL (≈ 1.19 µM)
MIC (Neisseria perflava 20, Replicate 2): 0.5 µg/mL (≈ 1.19 µM)
MIC (Neisseria perflava 20, Replicate 3): 0.5 µg/mL (≈ 1.19 µM)
MIC (Neisseria perflava 21, Consensus): 1 µg/mL (≈ 2.38 µM)
MIC (Neisseria perflava 21, Replicate 1): 1 µg/mL (≈ 2.38 µM)
MIC (Neisseria perflava 21, Replicate 2): 1 µg/mL (≈ 2.38 µM)
MIC (Neisseria perflava 21, Replicate 3): 1 µg/mL (≈ 2.38 µM)
MIC (Neisseria perflava 22, Consensus): 1 µg/mL (≈ 2.38 µM)
MIC (Neisseria perflava 22, Replicate 1): 1 µg/mL (≈ 2.38 µM)
MIC (Neisseria perflava 22, Replicate 2): 1 µg/mL (≈ 2.38 µM)
MIC (Neisseria perflava 22, Replicate 3): 1 µg/mL (≈ 2.38 µM)
MIC (Neisseria perflava 23, Consensus): 0.5 µg/mL (≈ 1.19 µM)
MIC (Neisseria perflava 23, Replicate 1): 0.5 µg/mL (≈ 1.19 µM)
MIC (Neisseria perflava 23, Replicate 2): 0.5 µg/mL (≈ 1.19 µM)
MIC (Neisseria perflava 23, Replicate 3): 0.5 µg/mL (≈ 1.19 µM)
MIC (Neisseria perflava 25, Consensus): 1 µg/mL (≈ 2.38 µM)
MIC (Neisseria perflava 25, Replicate 1): 1 µg/mL (≈ 2.38 µM)
MIC (Neisseria perflava 25, Replicate 2): 1 µg/mL (≈ 2.38 µM)
